One experiment relates to OVCAR3 p-RB. As to the kind of experiment: pRB ICW Assay in OVCAR3 Cells. It counts as cell-based. Conditions: Homo sapiens, OVCAR-3, incubated with compound for 2 hours. The protocol:
pRB ICW Assay in OVCAR3 Cells
OVCAR3 cells were maintained in RPMI (Corning, Catalog #: 10-040-CV) supplemented with 10% v/v FBS (Gibco, Catalog #: 26140-079), 1% v/v Penicillin Streptomycin (Gibco, Catalog #15140-122.) OVCAR3 cells grown at log phase were trypsinized, counted, and resuspended in fresh medium to reach a final density of 6.7e4 cells/mL and 75 μL of culture were dispensed into a 384-well plate (Falcon, cat #353962) using a Multidrop Combi dispenser (Thermo Scientific). The next day, compounds were dispensed as a 9-point, ½ log serial dilution using a Tecan digital dispenser (D300e), and cells were incubated with compound for 2 hours in a humidified incubator at 37° C. A reference compound at a final concentration of 10 μM was used as a control for maximum inhibition. Each compound was tested in duplicate for each experiment. At the end of the incubation, […] (Electron Microscopy, cat #15710) was slowly added to each well and the plate was incubated at room temperature (RT) for 30 minutes to fix cells. Cells were then permeabilized by incubating with 50 μL/well of wash buffer (1×PBS with 0.1% Triton X-100) 5×5 minutes, followed by 1 hour blocking with 30 μL/well of Odyssey blocking buffer (Li-COR, cat #927-40000), at RT. Anti-phosphor RB antibody (Cell signaling 8516S) was diluted 1:1000 in Odyssey blocking buffer and 20 μL was added to all wells and incubated overnight in 4° C. with gently rocking. The next day, cells were washed 5×5 min with 50 μL/well of wash buffer, followed with 1 hour incubation with secondary antibody and DRAQ5 diluted in Odyssey blocking buffer (1:500 dilution for secondary antibody and 1:2000 dilution for DRAQ5), 5×5 min washes, and one last wash with water. Plates were dried in 37° C. oven for 5 minutes and scanned using Li-COR Odyssey CLx imaging system to acquire intensities at 700 and 800 nm channels.

The target of a further experiment is T1, CDK2/Cyclin E2 (Homo sapiens, UniProt P24941).
T1 construct: Recombinant protein complex CDK2/Cyclin E2, expressed from insect cell, was purchased from ProQinase
Kind of experiment: CDK2/CyclinE2 Enzymatic Activity Assay (TR-FRET). Conditions: ATP 1 mM final, read-out: CDK2_E1 IC50. It counts as biochemical. The protocol: CDK2/CyclinE2 Enzymatic Activity Assay
The inhibitory activity of compounds was evaluated in vitro using TR-FRET assay with white 384-well low volume microplate (Greiner Bio-One). CDK2/Cyclin E2 catalyzed phosphorylation of peptide in the presence and absence of compounds was measured and used in IC50 determination. Recombinant protein complex CDK2/Cyclin E2, expressed from insect cell, was purchased from ProQinase. Testing compounds were dissolved in DMSO at 1 mM and tested in 9-dose IC50 mode. The reaction mixture was prepared by mixing CDK2/CyclinE2 (1 nM final), ULight-4E-BP1 (50 nM final, Perkinelmer, TRF0128-D), and ATP (1 mM final) in assay buffer (20 mM of HEPES pH 7.4, 1 mM of EGTA, 0.05% BSA, 0.005% Tween 20, and 1 mM TCEP). The compound of interest in DMSO was added to each well in 3-fold serial dilution by dispenser (TECAN D300E) to make a 9.9 μL of reaction mixture. After 20 minutes preincubation at room temperature, 0.1 μL MgCl2 (10 mM final) was added to initiate the reaction. Following a 45 minute incubation at 37° C., the reaction was stopped by addition of 2 μL of quenching buffer consisting of Lance detection buffer (Perkinelmer CR97-100C), LANCE Ultra Europium-anti-P-4E-BP1 (Perkinelmer, TRF0216-D), EDTA, and incubated at room temperature for additional 60 minutes in the dark. The reaction signal was measured by Envision multimode plate reader (PerkinElmer, 2102-0010). IC50 values were determined by fitting the data to the standard 4 parameters with Hill Slope using GraphPad Prism software.

Consider `C[C@@H]1CN(S(=O)(=O)c2cnn(C)c2)CC[C@@H]1Nc1ncc(C(F)(F)F)c(-c2cc(C#N)c(C(O)C(F)(F)F)s2)n1` (stereo partly drawn) [Example 123, 5-(2-(((3R,4S)-3-methyl-1-((1-methyl-1H-pyrazol-4-yl)sulfonyl)piperidin-4-yl)amino)-5-(trifluoromethyl)pyrimidin-4-yl)-2-(2,2,2-trifluoro-1-hydroxyethyl)thiophene-3-carbonitrile], for which the IC50 in the experiment on OVCAR3 p-RB and at CDK2/Cyclin E2 was at most 100 nM throughout.

As for `Cn1cc(S(=O)(=O)N2CCC(Nc3ncc(C(F)(F)F)c(-c4cc(C#N)c(C(C)(C)O)s4)n3)CC2)cn1` [Example 117, 2-(2-hydroxypropan-2-yl)-5-(2-((1-((1-methyl-1H-pyrazol-4-yl)sulfonyl)piperidin-4-yl)amino)-5-(trifluoromethyl)pyrimidin-4-yl)thiophene-3-carbonitrile], the IC50 with OVCAR3 p-RB and at CDK2/Cyclin E2 was at most 100 nM throughout.

On to `Cn1cnc(S(=O)(=O)N2CC[C@@H](Nc3ncc(C(F)(F)F)c(-c4cc(C#N)c(CC(C)(C)O)s4)n3)[C@H](F)C2)c1` [Example 127, 5-(2-(((3R,4R)-3-fluoro-1-((1-methyl-1H-imidazol-4-yl)sulfonyl)piperidin-4-yl)amino)-5-(trifluoromethyl)pyrimidin-4-yl)-2-(2-hydroxy-2-methylpropyl)thiophene-3-carbonitrile], for which the half-inhibitory concentration (IC50) with OVCAR3 p-RB and on CDK2/Cyclin E2 was at most 100 nM each time.

Regarding `Cn1cc(S(=O)(=O)N2CC[C@@H](Nc3ncc(C(F)(F)F)c(-c4ncc(CC(C)(C)O)s4)n3)[C@H](F)C2)cn1` [Example 110, 1-(2-(2-(((3R,4R)-3-fluoro-1-((1-methyl-1H-pyrazol-4-yl)sulfonyl)piperidin-4-yl)amino)-5-(trifluoromethyl)pyrimidin-4-yl)thiazol-5-yl)-2-methylpropan-2-ol], the IC50 (in general, the point on the concentration scale where inhibition reaches its midpoint) with OVCAR3 p-RB is 100 to 500 nM; on CDK2/Cyclin E2 it was at most 100 nM.

Turning to `C[C@@H]1CN(S(=O)(=O)c2cnn(C)c2)CC[C@@H]1Nc1ncc(C(F)(F)F)c(-c2cc(C#N)c(C(C)(C)O)s2)n1` [Example 118, 2-(2-hydroxypropan-2-yl)-5-(2-(((3R,4S)-3-methyl-1-((1-methyl-1H-pyrazol-4-yl)sulfonyl)piperidin-4-yl)amino)-5-(trifluoromethyl)pyrimidin-4-yl)thiophene-3-carbonitrile], the half-inhibitory concentration (IC50) with OVCAR3 p-RB is 100 to 500 nM; on CDK2/Cyclin E2, at most 100 nM.

Turning to `Cn1cc(S(=O)(=O)N2CC[C@H](Nc3ncc(C(F)(F)F)c(-c4cc(C(N)=O)ns4)n3)[C@H](F)C2)cn1` [Example 129, 5-(2-(((3R,4S)-3-fluoro-1-((1-methyl-1H-pyrazol-4-yl)sulfonyl)piperidin-4-yl)amino)-5-(trifluoromethyl)pyrimidin-4-yl)isothiazole-3-carboxamide], the IC50 in the experiment on OVCAR3 p-RB and at CDK2/Cyclin E2 was at most 100 nM throughout.

With `C[C@@H]1CN(S(=O)(=O)c2cnn(C)c2)CC[C@@H]1Nc1ncc(C(F)(F)F)c(-c2ncc(C3(O)CC3)s2)n1` [Example 150, 1-(2-(2-(((3R,4S)-3-methyl-1-((1-methyl-1H-pyrazol-4-yl)sulfonyl)piperidin-4-yl)amino)-5-(trifluoromethyl)pyrimidin-4-yl)thiazol-5-yl)cyclopropan-1-ol], the IC50 is 100 to 500 nM in the experiment with OVCAR3 p-RB and at most 100 nM on CDK2/Cyclin E2.

Regarding `CC(C)(O)Cc1sc(-c2nc(NC3CCN(S(C)(=O)=O)CC3)ncc2C(F)(F)F)cc1C#N` [Example 124, 2-(2-hydroxy-2-methylpropyl)-5-(2-((1-(methylsulfonyl)piperidin-4-yl)amino)-5-(trifluoromethyl)pyrimidin-4-yl)thiophene-3-carbonitrile], the IC50 in the experiment with OVCAR3 p-RB and on CDK2/Cyclin E2 was at most 100 nM in each case.

Consider `C[C@@H]1CN(S(=O)(=O)N2CCOCC2)CC[C@@H]1Nc1ncc(C(F)(F)F)c(-c2ncc(CC(C)(C)O)s2)n1` [Example 147, 2-methyl-1-(2-(2-(((3R,4S)-3-methyl-1-(morpholinosulfonyl)piperidin-4-yl)amino)-5-(trifluoromethyl)pyrimidin-4-yl)thiazol-5-yl)propan-2-ol], for which the results for the IC50 in the experiment with OVCAR3 p-RB and at CDK2/Cyclin E2 were above 500 nM and at most 100 nM, respectively.

Turning to `CC(C)(O)Cc1cnc(-c2nc(N[C@H]3CCN(S(=O)(=O)c4cn[nH]c4)C[C@H]3F)ncc2C(F)(F)F)s1` [Example 137, 1-(2-(2-(((3R,4S)-1-((1H-pyrazol-4-yl)sulfonyl)-3-fluoropiperidin-4-yl)amino)-5-(trifluoromethyl)pyrimidin-4-yl)thiazol-5-yl)-2-methylpropan-2-ol], the IC50 with OVCAR3 p-RB and on CDK2/Cyclin E2 was at most 100 nM in each case.

With `CC(C)(O)Cc1cnc(-c2nc(N[C@H]3CCN(S(C)(=O)=O)C[C@H]3F)ncc2C(F)F)s1` [Example 154, 1-(2-(5-(difluoromethyl)-2-(((3R,4S)-3-fluoro-1-(methylsulfonyl)piperidin-4-yl)amino)pyrimidin-4-yl)thiazol-5-yl)-2-methylpropan-2-ol], the IC50 in the experiment with OVCAR3 p-RB was above 500 nM; on CDK2/Cyclin E2, at most 100 nM.

Take `C[C@@H]1CN(S(=O)(=O)c2cn(C)cn2)CC[C@@H]1Nc1ncc(C(F)(F)F)c(-c2ncc(C(C)(C)O)s2)n1` [Example 133, 2-(2-(2-(((3R,4S)-3-methyl-1-((1-methyl-1H-imidazol-4-yl)sulfonyl)piperidin-4-yl)amino)-5-(trifluoromethyl)pyrimidin-4-yl)thiazol-5-yl)propan-2-ol]: the IC50 in the experiment on OVCAR3 p-RB and on CDK2/Cyclin E2 was at most 100 nM in each case.

Regarding `CS(=O)(=O)N1CCC(Nc2ncc(C(F)(F)F)c(-c3cc(C#N)c(C(O)C(F)(F)F)s3)n2)CC1` (stereo not shown) [Example 122, 5-(2-((1-(methylsulfonyl)piperidin-4-yl)amino)-5-(trifluoromethyl)pyrimidin-4-yl)-2-(2,2,2-trifluoro-1-hydroxyethyl)thiophene-3-carbonitrile], the IC50 with OVCAR3 p-RB and on CDK2/Cyclin E2 was at most 100 nM each time.

With `CC(C)(O)c1sc(-c2nc(N[C@@H]3CCN(S(C)(=O)=O)C[C@H]3F)ncc2C(F)(F)F)cc1C#N` [Example 116, 5-(2-(((3R,4R)-3-fluoro-1-(methylsulfonyl)piperidin-4-yl)amino)-5-(trifluoromethyl)pyrimidin-4-yl)-2-(2-hydroxypropan-2-yl)thiophene-3-carbonitrile], the IC50 in the experiment on OVCAR3 p-RB and at CDK2/Cyclin E2 was at most 100 nM throughout.

`CC(C)(O)Cc1sc(-c2nc(NC3CCN(S(C)(=O)=O)CC3)ncc2C(F)(F)F)cc1C(N)=O` [Example 130, 2-(2-hydroxy-2-methylpropyl)-5-(2-((1-(methylsulfonyl)piperidin-4-yl)amino)-5-(trifluoromethyl)pyrimidin-4-yl)thiophene-3-carboxamide]: the figures for the IC50 in the experiment with OVCAR3 p-RB and at CDK2/Cyclin E2 were 100 to 500 nM and at most 100 nM, respectively.

Consider `CS(=O)(=O)N1CCC(Nc2ncc(C(F)(F)F)c(-c3ncc(C(O)C(F)(F)F)s3)n2)CC1` (stereo not shown) [Example 113, 2,2,2-trifluoro-1-(2-(2-((1-(methylsulfonyl)piperidin-4-yl)amino)-5-(trifluoromethyl)pyrimidin-4-yl)thiazol-5-yl)ethan-1-ol], for which the IC50 in the experiment on OVCAR3 p-RB and on CDK2/Cyclin E2 was at most 100 nM each time.

Regarding `C[C@@H]1CN(S(=O)(=O)c2cnn(C)c2)CC[C@@H]1Nc1ncc(C(F)(F)F)c(-c2ncc(C(C)(O)C(F)F)s2)n1` (stereo partly drawn) [Example 143, 1,1-difluoro-2-(2-(2-(((3R,4S)-3-methyl-1-((1-methyl-1H-pyrazol-4-yl)sulfonyl)piperidin-4-yl)amino)-5-(trifluoromethyl)pyrimidin-4-yl)thiazol-5-yl)propan-2-ol], the half-maximal inhibitory concentration (IC50) in the experiment with OVCAR3 p-RB and at CDK2/Cyclin E2 was at most 100 nM throughout.

Source of the values: patent publication US20240150340A1, “CDK Inhibitors And Their Use As Pharmaceuticals” (Prelude Therapeutics Incorporated, priority 2022, published 2024).
